Literature values in patent publication US20120148662A1, “Formulation” (priority 2010, published 2012).

Experiments:
[1] = dosed conventionally

aqueous solubility: extremely low | oral bioavailability [1]: low
SMILES: CCC(CC)CC1(C(=O)Nc2ccccc2SC(=O)C(C)C)CCCCC1 [dalcetrapib, S-[2-([[1-(2-ethylbutyl)-cyclohexyl]-carbonyl]amino)phenyl]2-methylpropanethioate]
